Structures can show the parent of a compound that is named as a salt.
biological target: T1, CaV3.2 (Homo sapiens, UniProt O95180); experiment: CaV3.2 assay: functional evaluation of T-type calcium currents (IonWorks HT screen for hCaV3.2 / conventional whole cell patch clamp) in stably transfected HEK cells; assay type: cell-based
T1 construct: expressed in transfected cells; host or cells: HEK cells, stably transfected; human Kir2.1 co-expressed
From the text: Functional evaluation of voltage-gated ion channels was used to determine potency and/or single concentration efficacy of proprietary compounds. Two different methodologies were used to measure ion currents: the IonWorks HT (Molecular Devices, Sunnyvale, Calif.) a moderate throughput voltage clamp screening platform that utilizes 96-well compound plates and conventional whole cell patch clamp for lower throughput, higher fidelity determinations.
HEK cells were transiently transfected and then selected for stable heterologous expression of different channel proteins of interest. Calcium channel cell lines expressed a resting potassium current, human Kir2.1, and the pore forming α-subunit of voltage-gated calcium channels. In the case of Cav2.1 cells the auxiliary subunit, β2a, was also expressed. Calcium channel lines that were used to generate the data in this document expressed either human Cav3.2, rat Cav3.2 or human Cav2.1. The human heart sodium channel, hNav1.5, was stably expressed in CHO cells. These cells were licensed from the University of Pennsylvania.
Cell lines were grown at 37° C. in humidified incubators, equilibrated with 95% air/5% CO2. CHO cells were grown in Ham's F-12 medium. HEK cells were grown in DMEM. All media were supplemented with 10% heat-inactivated fetal bovine serum, penicillin, streptomycin and appropriate selection antibiotics (zeocin, geneticin and/or hygromycin). Cells were passaged when 80% confluent or less.
Ionworks Screen for hCaV3.2
The extracellular buffer for experiments using this instrument contained the following (mM) (NaCl 125, HEPES 10, KCl 5.4, CaCl2 1.8, MgCl2 1.8, 0.2 BaCl2 pH 7.35). […]
Experiments were performed at room temperature. […] During this time leak currents were measured during a step to −110 mV (200 milliseconds). […]
T-type currents were measured as the peak inward current minus the current at the end of the 250 msec step to −20 mV. […] After incubation with compound for 10 minutes currents were measured again. […] For each compound, 8-point concentration-effect relationships were measured with ½ log serial dilutions. […]

T1 sequence (O95180 whole entry): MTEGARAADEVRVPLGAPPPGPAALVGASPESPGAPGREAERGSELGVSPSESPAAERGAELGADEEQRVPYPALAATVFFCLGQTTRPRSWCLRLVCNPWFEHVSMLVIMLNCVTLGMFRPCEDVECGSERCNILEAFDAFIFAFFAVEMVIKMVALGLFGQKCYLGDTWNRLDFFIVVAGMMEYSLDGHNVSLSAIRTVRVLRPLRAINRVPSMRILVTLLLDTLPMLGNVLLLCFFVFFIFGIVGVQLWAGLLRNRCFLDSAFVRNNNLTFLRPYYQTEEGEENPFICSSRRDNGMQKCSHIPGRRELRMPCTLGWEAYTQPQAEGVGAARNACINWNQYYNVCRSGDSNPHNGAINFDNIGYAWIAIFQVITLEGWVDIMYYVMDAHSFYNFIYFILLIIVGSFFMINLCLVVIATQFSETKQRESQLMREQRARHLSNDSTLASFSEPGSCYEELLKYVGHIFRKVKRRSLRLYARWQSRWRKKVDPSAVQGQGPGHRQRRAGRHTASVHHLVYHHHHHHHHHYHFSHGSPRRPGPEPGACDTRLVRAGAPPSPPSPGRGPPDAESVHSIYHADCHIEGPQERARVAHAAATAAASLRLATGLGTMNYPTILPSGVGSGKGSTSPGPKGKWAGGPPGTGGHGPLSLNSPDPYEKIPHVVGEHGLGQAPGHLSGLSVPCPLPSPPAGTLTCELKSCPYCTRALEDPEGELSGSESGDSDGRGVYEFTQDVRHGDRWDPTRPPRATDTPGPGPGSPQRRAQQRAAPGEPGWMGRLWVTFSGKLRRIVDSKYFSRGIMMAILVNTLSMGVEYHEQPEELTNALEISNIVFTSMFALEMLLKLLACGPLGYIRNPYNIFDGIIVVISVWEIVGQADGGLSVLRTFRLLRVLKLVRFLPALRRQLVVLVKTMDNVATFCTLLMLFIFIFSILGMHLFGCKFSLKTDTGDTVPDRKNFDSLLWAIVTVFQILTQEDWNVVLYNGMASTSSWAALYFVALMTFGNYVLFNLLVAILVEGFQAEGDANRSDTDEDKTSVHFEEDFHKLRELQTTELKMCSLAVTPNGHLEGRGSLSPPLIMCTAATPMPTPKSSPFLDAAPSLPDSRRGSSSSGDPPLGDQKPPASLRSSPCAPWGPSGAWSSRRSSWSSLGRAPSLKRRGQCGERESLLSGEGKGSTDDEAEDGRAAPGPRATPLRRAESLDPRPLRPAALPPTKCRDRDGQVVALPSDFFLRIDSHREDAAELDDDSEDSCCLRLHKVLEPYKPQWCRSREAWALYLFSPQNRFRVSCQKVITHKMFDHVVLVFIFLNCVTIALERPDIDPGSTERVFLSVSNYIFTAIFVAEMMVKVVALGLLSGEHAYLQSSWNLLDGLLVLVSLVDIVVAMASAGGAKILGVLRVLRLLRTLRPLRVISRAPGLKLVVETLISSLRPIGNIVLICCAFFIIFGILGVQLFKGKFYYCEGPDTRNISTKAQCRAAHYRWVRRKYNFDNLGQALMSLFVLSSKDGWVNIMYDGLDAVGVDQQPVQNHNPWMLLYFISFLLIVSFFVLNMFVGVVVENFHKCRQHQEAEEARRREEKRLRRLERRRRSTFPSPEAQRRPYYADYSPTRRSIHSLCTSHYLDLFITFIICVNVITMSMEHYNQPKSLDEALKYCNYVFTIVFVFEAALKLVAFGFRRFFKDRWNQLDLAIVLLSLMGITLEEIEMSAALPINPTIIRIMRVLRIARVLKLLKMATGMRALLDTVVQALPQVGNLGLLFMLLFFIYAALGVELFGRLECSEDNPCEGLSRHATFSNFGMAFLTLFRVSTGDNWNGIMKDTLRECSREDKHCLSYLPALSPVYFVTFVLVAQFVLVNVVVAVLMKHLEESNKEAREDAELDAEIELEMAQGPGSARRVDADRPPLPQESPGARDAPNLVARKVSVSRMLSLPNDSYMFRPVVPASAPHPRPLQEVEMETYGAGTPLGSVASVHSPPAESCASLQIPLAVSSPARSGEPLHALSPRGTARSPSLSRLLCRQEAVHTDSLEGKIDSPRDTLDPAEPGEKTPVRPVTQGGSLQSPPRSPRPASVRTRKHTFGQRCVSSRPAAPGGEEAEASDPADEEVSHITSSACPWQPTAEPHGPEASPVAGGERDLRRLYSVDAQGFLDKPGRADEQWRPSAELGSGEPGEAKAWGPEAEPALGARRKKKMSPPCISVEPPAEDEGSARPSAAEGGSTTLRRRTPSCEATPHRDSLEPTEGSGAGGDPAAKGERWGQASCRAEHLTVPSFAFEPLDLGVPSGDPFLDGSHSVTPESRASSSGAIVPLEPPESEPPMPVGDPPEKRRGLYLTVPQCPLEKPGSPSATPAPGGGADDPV

First: CC(C)N1CC2(CCN(c3nc4cc(F)c(C(F)(F)F)cc4[nH]3)CC2)C1c1ccc(Cl)cc1 (stereo not drawn) [Example 2]
Second: CC(C)N1CC2(CCN(c3ccccn3)CC2)C1c1ccc(Cl)cc1 (stereo not drawn) [Example 3, 1-(4-Chlorophenyl)-2-(1-methylethyl)-7-(2-pyridinyl)-2,7-diazaspiro[3.5]nonane, formic acid salt]
The IC50 of the first is 24-fold lower: 0.212 µM for the first, 4.99 µM for the second.

Compound `CC(C)N1CC2(CCN(c3ncccn3)CC2)C1c1ccc(Cl)cc1` (stereo not drawn) [Example 4, 1-(4-Chlorophenyl)-2-(1-methylethyl)-7-(2-pyrimidinyl)-2,7-diazaspiro[3.5]nonane, formic acid salt] has an IC50 of 8.63 µM.

Source: patent US20080070888A1, “AZETIDINE AND AZETIDONE DERIVATIVES USEFUL IN TREATING PAIN AND DISORDERS OF LIPID METABOLISM” (priority 2006, published 2008)
